Legend:
Type in all cases: cell-based
SLC22A15 [1] = target: T1, SLC22A15 (Homo sapiens, UniProt Q8IZD6); assay: radiolabelled uptake in transfected HEK293 Flp-In cells
SLC22A15 [2] = target: T1, SLC22A15
SLC22A4 = target: T2, SLC22A4 (Homo sapiens, UniProt Q9H015); assay: radiolabelled uptake in transfected HEK293 Flp-In cells
T2 sequence (Q9H015 1-551): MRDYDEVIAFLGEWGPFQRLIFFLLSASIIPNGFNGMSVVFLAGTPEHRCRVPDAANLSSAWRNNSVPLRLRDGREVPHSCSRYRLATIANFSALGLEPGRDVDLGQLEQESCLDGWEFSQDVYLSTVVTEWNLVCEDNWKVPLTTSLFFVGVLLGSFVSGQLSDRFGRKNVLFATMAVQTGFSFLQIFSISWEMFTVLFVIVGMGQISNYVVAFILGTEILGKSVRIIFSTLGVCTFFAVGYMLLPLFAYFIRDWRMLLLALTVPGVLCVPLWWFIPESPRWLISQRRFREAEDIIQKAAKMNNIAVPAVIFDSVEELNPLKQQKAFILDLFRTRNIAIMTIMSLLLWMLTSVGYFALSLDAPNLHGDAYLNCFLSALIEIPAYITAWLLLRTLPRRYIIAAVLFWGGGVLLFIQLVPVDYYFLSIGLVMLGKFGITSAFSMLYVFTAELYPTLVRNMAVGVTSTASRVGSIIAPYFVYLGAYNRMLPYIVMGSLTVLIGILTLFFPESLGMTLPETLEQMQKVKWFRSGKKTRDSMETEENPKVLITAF

T1 sequence (Q8IZD6 whole entry): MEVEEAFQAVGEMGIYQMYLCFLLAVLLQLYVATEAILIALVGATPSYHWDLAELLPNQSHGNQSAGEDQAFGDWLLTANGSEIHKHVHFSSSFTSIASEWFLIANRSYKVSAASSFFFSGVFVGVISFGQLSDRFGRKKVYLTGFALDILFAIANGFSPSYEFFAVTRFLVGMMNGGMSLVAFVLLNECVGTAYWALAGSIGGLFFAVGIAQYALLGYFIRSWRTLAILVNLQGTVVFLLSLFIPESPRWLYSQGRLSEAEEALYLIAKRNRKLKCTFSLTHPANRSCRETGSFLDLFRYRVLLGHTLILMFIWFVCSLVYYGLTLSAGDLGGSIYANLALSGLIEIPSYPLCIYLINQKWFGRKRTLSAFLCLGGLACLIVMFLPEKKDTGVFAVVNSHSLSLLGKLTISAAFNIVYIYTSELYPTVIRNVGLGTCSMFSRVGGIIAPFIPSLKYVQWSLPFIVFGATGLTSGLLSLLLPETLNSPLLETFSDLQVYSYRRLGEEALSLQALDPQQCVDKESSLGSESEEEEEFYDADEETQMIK

For `C[N+](C)(C)CC(=O)O` [betaine], the “radiolabelled uptake in transfected HEK293 Flp-In cells” value (SLC22A15 [1]) was “highest fold-uptake over empty vector were the zwitterions: ergothioneine, carnosine and betaine”.

Compound `O=S(=O)(O)CCN1CCN(CCO)CC1` [HEPES, 4-(2-hydroxyethyl)-1-piperazineethanesulfonic acid] has an IC50 (SLC22A15 [2]) of 5.8 ± 1.4 mM.

In the case of `C[N+](C)(C)[C@@H](Cc1c[nH]c(=S)[nH]1)C(=O)[O-]` [ergothioneine], the “radiolabelled uptake in transfected HEK293 Flp-In cells” value (SLC22A4) is reported as “only SLC22A4 and SLC22A15 showed significant uptake of ergothioneine over EV cells (Fig. 3B)”.

Source: publication PMC7839234 (FASEB journal : official publication of the Federation of …, 2020)
